From publication PMC5334708, “Mosquitocidal Activity and Mode of Action of the Isoxazoline Fluralaner” (International Journal of Environmental Research and Public …, 2017)

Legend:
[1] = biological target: T1, mammalian GABAA α1β3γ2 receptor (Homo sapiens, UniProt P14867+P18507+P28472); assay: whole-cell planar patch clamp, block of GABA EC80 current in transfected HEK293 cells; assay type: cell-based
T1 construct: gene GABRA1; with GABRB3 (β3) and GABRG2 (γ2) subunits

[2] = biological target: T1, mammalian GABAA α1β3γ2 receptor; assay: whole-cell planar patch clamp, block of GABA EC80 current in transfected HEK293 cells (antagonist positive control); assay type: cell-based

T1 sequence (P14867 28-456): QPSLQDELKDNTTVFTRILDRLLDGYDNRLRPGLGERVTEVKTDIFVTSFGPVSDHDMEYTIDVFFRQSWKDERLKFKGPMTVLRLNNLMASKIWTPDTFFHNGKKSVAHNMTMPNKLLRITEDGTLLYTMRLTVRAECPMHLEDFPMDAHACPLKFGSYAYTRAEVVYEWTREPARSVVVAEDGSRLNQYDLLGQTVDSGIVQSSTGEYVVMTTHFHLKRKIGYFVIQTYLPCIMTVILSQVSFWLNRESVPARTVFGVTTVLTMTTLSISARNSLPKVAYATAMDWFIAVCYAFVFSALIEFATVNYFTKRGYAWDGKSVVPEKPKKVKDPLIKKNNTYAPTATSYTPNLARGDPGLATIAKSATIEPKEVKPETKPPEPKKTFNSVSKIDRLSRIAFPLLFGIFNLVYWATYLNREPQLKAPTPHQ
T1 sequence (P28472 26-473): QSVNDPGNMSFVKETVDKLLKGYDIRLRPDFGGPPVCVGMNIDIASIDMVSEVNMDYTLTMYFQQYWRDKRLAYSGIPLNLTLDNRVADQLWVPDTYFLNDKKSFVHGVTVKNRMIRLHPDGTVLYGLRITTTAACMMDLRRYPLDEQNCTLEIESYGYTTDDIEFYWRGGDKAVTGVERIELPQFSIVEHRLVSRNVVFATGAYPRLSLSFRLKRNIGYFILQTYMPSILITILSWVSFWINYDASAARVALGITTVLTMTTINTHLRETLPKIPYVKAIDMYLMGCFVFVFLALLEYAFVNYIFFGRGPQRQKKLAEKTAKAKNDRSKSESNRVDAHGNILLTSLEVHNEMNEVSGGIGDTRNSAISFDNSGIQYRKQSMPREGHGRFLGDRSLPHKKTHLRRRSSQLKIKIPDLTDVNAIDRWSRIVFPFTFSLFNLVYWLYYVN
T1 sequence (P18507 40-475): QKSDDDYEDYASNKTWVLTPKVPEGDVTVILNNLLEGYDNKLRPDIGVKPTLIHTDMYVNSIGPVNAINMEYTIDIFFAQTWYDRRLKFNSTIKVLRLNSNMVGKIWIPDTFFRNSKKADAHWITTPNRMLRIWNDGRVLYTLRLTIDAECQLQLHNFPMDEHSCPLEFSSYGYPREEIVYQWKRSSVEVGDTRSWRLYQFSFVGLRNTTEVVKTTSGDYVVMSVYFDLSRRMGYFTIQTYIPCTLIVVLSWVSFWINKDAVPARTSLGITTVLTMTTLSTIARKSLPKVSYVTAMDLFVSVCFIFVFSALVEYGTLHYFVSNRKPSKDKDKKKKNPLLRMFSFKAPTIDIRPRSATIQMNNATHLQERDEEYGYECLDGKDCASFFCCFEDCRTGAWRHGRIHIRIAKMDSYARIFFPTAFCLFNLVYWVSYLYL

SMILES | IC50 [1] [µM] | IC50 [2] [µM]
N#Cc1nn(-c2c(Cl)cc(C(F)(F)F)cc2Cl)c(N)c1[S+]([O-])C(F)(F)F (centres unmarked) [fipronil] | 4.9 | –
C=C(C)[C@@H]1[C@H]2OC(=O)[C@@H]1[C@]1(O)C[C@H]3OC34C(=O)O[C@H]2[C@@]41C.CC(C)(O)[C@@H]1[C@H]2OC(=O)[C@@H]1[C@]1(O)C[C@H]3OC34C(=O)O[C@H]2[C@@]41C (some centres unmarked) [picrotoxin] | – | 3.9
